# Laboratory results: patent US10894787B2, “Modulators of the GPR119 receptor and the treatment of disorders related thereto” (Arena Pharmaceuticals, Inc., priority 2010, dated 2021)
# Where two headings read alike, the source gives them in different places.
# How the values were obtained:
# [1] = combined administration with a DPP-IV inhibitor, cited from earlier work
# GPR119 receptor = biological target: T1, GPR119 receptor (Homo sapiens, UniProt Q8TDV5); test: HTRF assay for direct cAMP measurement in CHO-K1 cells stably expressing the GPR119 receptor; assay type: cell-based; settings: for EC50: CHO-K1 cells stably expressing GPR119; for Pharmacological activity of metabolites (HTRF assay): metabolites of Compound 1
# T1 construct: expressed in transfected cells
# T1 sequence (Q8TDV5 2-335 limits assumed): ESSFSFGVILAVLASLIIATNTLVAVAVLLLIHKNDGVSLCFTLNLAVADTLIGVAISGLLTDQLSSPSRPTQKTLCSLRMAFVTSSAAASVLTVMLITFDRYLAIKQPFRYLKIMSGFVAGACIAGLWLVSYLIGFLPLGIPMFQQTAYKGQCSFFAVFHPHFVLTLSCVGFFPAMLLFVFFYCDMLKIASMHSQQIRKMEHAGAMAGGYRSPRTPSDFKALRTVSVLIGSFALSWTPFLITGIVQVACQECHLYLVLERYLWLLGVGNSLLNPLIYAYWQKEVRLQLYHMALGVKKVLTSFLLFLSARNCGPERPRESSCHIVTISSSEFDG
# Experimental: The GPR119 agonist, Compound 1, was evaluated in an HTRF® cAMP detection assay according to the manufacturer's instructions (Cisbio, cAMP Dynamic 2 Assay Kit; #62AM4PEJ) using CHO-K1 cells stably expressing the GPR119 receptor. Briefly, CHO-K1 cells were transduced with a lentiviral vector encoding the nucleotide sequence of GPR119 (NCBI mRNA and protein reference sequences: NM_178471.2 & NP_848566, (GPR119 has also been referred to as Glucose-Dependent Insulinotropic Receptor (GDIR)). The N-terminus of the GPR119 nucleotide sequence was modified to replace the first, methionine-coding codon with a nucleotide sequence coding for a standard, nine amino acid, hemagglutinin tag. Following transduction, cells expressing the GPR119 receptor were isolated and a single clone was isolated following standard dilution-cloning procedures. On the day of the assay, cultured CHO-GPR119 cells were harvested, suspended in assay buffer and plated into 384-well assay plates (PerkinElmer Proxiplate #6008280) at a density of 2,000 cells per well. A cAMP standard curve was included on each plate. Test compounds were solubilized in DMSO, serially diluted in DMSO and then diluted in assay buffer before adding to the cells. Test compounds were evaluated in triplicate, using 10-point, 5-fold serial dilutions starting at 10 μM. The final DMSO concentration in the assay was 0.5%. Compounds and cells were incubated for 1 h at room temperature and then detection reagents were added to each well (cAMP-D2 in cell lysis buffer, followed by europium cryptate-labeled anti-cAMP antibody). Plates were then incubated at room temperature for 1 h prior to reading. Time-resolved fluorescence measurements were collected on PerkinElmer Envision™ or BMG Pherastar™ microplate readers. The compound N-(2-fluoro-4-(methylsulfonyl)phenyl)-6-(4-(3-isopropyl-1,2,4-oxadiazol-5-yl)piperidin-1-yl)-5-nitropyrimidin-4-amine was used as a positive control in each runset while assay buffer containing 0.5% DMSO was used as the negative control.
# dog liver microsomes = test: In vitro metabolism of Compound 1 in dog liver microsomes; assay type: in vitro ADME; settings: Compound 1 incubated with 0.25 mg/mL microsomal protein, pH 7.4
# Experimental: (§1) Compound 1 was incubated with mouse, rat, dog, monkey and human liver microsomal protein (0.25 mg/mL final concentration) in 100 mM potassium phosphate buffer containing 3 mM MgCl2 and 1 mM EDTA (pH 7.4) for over a period of time in the presence or absence of (3-NADPH. The samples were then processed and the supernatant was analyzed by LC-MS/MS for the identification and quantification of the metabolites.
# [2] = In vivo metabolism of Compound 1: metabolites in dog plasma samples (LC/MS/MS); settings: dog plasma after dosing Compound 1; under the analytical conditions used
# Experimental: (§2) Metabolites of Compound 1 were identified in plasma samples collected from different pharmacokinetic studies in various species.
# (§3) Four species, mouse, rat, dog and monkey were dosed with Compound 1, and plasma samples were collected at predetermined time points from each of the species according to specific study protocols. The samples were then processed and subjected to the LC/MS/MS analysis for the identification and quantification of the metabolites. Three metabolites, designated M1 (Compound 2), M2 (Compound 3), and M3 were identified in plasma samples from various species. The M1 metabolite was identified as a mono-N-demethylation of Compound 1, and the M2 metabolite was a di-N-demethylation product of Compound 1. The third metabolite M3 (i.e., 3-fluoro-4-(5-fluoro-6-(4-(3-(2-fluoropropan-2-yl)-1,2,4-oxadiazol-5-yl)piperidin-1-yl)pyrimidin-4-ylamino)benzoic acid, see below) was determined as a carboxylic acid of Compound 1.
# liver microsomes = test: In vitro metabolism of Compound 1 in liver microsomes from various species; assay type: in vitro ADME, mouse, rat, dog, monkey and human; settings: Compound 1 incubated with 0.25 mg/mL microsomal protein, pH 7.4; relative to M2 and M3
# Experimental: as §1
# [3] = human studies; infusion; over 24 hours; cited from earlier work
# [4] = In vivo metabolism of Compound 1: metabolites in plasma samples from various species (LC/MS/MS); set-up: species or system mouse, rat, dog and monkey; settings: all species, after dosing Compound 1
# Experimental: as §2, §3
# [5] = 1 h incubation at room temperature, read-out: EC50, HTRF cAMP assay
compound,measurement,setting,value
"CC(C)c1noc(C2CCN(c3ncnc(Nc4ccc(S(C)(=O)=O)cc4F)c3[N+](=O)[O-])CC2)n1 [Compound B111, (2-Fluoro-4-methanesulfonyl-phenyl)-{6-[4-(3-isopropyl-[1,2,4]oxadiazol-5-yl)-piperidin-1-yl]-5-nitro-pyrimidin-4-yl}-amine]",Plasma GLP-1 levels,[1]; greater than either agent alone,acutely increased plasma GLP-1 levels
same,Glucose tolerance,[1]; significantly greater degree than either agent alone,improved glucose tolerance
"CC(C)(F)c1noc(C2CCN(c3ncnc(Nc4ccc(C(N)=O)cc4F)c3F)CC2)n1 [Compound 3, 3-fluoro-4-(5-fluoro-6-(4-(3-(2-fluoropropan-2-yl)-1,2,4-oxadiazol-5-yl)piperidin-1-yl)pyrimidin-4-ylamino)benzamide]",EC50,GPR119 receptor; [5],28.2 nM
same,Pharmacological activity of metabolites (HTRF assay),GPR119 receptor,pharmacologically active
same,Formation of metabolite in dog liver microsomes,dog liver microsomes,negligible
same,Metabolite observed in dog plasma samples,[2],not observed
"CNC(=O)c1ccc(Nc2ncnc(N3CCC(c4nc(C(C)(C)F)no4)CC3)c2F)c(F)c1 [Compound 2, 3-fluoro-4-(5-fluoro-6-(4-(3-(2-fluoropropan-2-yl)-1,2,4-oxadiazol-5-yl)piperidin-1-yl)pyrimidin-4-ylamino)-N-methylbenzamide]",EC50,GPR119 receptor; [5],27 nM
same,Pharmacological activity of metabolites (HTRF assay),GPR119 receptor,pharmacologically active
same,Rate of formation of metabolite in liver microsomal incubation,liver microsomes,highest
PYY3-36: generated from PYY1-36 by cleavage of the N-terminal Tyr and Pro residues by DPP-IV; Y2R agonist,Reduction of food intake,[3],33%
"CC(C)(F)c1noc(C2CCN(c3ncnc(Nc4ccc(C(=O)O)cc4F)c3F)CC2)n1 [Compound M3, 3-fluoro-4-(5-fluoro-6-(4-(3-(2-fluoropropan-2-yl)-1,2,4-oxadiazol-5-yl)piperidin-1-yl)pyrimidin-4-ylamino)benzoic acid]",Circulating metabolite status,[4],major circulating metabolite
same,EC50,"GPR119 receptor; read-out: EC50, HTRF assay",100000 nM
same,Pharmacological activity of metabolites (HTRF assay),GPR119 receptor,substantially little activity
